Experimental data from ChEMBL document CHEMBL4368907 (J Med Chem, 2019).
The source made the active and inactive calls. The rule behind the calls is not given here. Numbered stars: 1 amine (or outer) side, 2 acyl side, 3 side chain; on linkers, the order of the positions; unused ones are H or OH. Square brackets hold non-standard residues; d marks the D form. Peptide text beside a SMILES is read from it. * marks the point of attachment. Phe(4-CH2SO3H) = N[C@@H](Cc1ccc(CS(=O)(=O)O)cc1)C(=O)O; sY = N[C@@H](Cc1ccc(OS(=O)(=O)O)cc1)C(=O)O; C18 diacid = O=C(O)CCCCCCCCCCCCCCCCC(=O)*; γGlu = O=C(O)[C@H](CCC(=O)[*:2])N[*:1]; NMeF = CN[C@@H](Cc1ccccc1)C(=O)O; NMeD = CN[C@@H](CC(=O)O)C(=O)O; dNMeD = CN[C@H](CC(=O)O)C(=O)O; Nle = CCCC[C@H](N)C(=O)O; AEEA = NCCOCCOCC(=O)O

Assays:
[1] = Drug level in Ellegaard Gottingen minipig plasma treated with C18d-gammaGlu-(OEG)2-Asp-Phe(4sm)-Nle-Gly-Trp-Nle-DMeAspMePhe-NH2 at 5 nmol/kg, iv administered as single dose by LC-MS/MS analysis; format: ADME, organism-based, Sus scrofa; conditions: pig, in vivo
[2] = target: T1, Gastrin/cholecystokinin type B receptor (Homo sapiens, UniProt P32239); experiment: (§1) Agonist activity at human CCK2R expressed in human 1321N1 cells assessed as IP1 accumulation after 1 hr by HTRF assay; format: functional, cell-based
T1 sequence (P32239 whole entry): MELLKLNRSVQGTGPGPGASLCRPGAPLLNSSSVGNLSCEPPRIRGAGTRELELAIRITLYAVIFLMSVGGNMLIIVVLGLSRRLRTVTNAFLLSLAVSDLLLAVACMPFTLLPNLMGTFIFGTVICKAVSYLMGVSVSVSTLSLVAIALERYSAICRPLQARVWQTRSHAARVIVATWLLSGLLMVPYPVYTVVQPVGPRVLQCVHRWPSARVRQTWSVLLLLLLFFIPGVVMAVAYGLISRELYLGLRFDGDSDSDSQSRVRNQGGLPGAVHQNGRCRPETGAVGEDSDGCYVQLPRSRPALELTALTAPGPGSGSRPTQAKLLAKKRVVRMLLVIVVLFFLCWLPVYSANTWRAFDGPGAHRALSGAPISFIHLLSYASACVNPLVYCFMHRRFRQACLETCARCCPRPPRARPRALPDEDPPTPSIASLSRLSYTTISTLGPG

[3] = target: T2, Cholecystokinin receptor type A (Homo sapiens, UniProt P32238); experiment: (§2) Agonist activity at human CCK1R expressed in human 1321N1 cells assessed as IP1 accumulation after 1 hr by HTRF assay; format: functional, cell-based
T2 sequence (P32238 whole entry): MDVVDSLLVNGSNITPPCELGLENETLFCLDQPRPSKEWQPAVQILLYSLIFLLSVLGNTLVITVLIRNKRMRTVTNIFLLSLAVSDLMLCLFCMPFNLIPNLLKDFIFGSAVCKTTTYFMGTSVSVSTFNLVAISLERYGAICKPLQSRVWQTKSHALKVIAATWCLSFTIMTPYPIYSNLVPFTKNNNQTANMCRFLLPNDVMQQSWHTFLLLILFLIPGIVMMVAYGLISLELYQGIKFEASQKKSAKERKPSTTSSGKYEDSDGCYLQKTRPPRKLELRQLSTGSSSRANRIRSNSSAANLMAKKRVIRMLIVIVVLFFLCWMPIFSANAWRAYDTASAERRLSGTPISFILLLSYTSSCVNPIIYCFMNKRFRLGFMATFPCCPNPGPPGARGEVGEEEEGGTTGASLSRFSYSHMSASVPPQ

Sus scrofa [4] = experiment: Anti-obesity activity in lean Landrace Yorkshire Duroc pig assessed as food intake at 30 nmol/kg, sc measured at 72 to 96 hrs post dose (reference value: 1.8 to 2.1 kg); format: functional
[5] = target: T2, Cholecystokinin receptor type A; experiment: (§3) Displacement of [125I]-CCK-8 from human CCK1R expressed in human 1321N1 cell membranes after 2 hrs by SPA assay
[6] = Plasma concentration in lean Landrace Yorkshire Duroc pig at 30 nmol/kg, sc measured after 96 hrs post dose; format: ADME, organism-based, Sus scrofa
[7] = target: T1, Gastrin/cholecystokinin type B receptor; experiment: (§4) Displacement of [125I]-CCK-8 from human CCK2R expressed in human 1321N1 cell membranes after 2 hrs by SPA assay
[8] = Toxicity in lean Landrace Yorkshire Duroc pig at 30 nmol/kg, sc measured up to 96 hrs post dose; format: organism-based, Sus scrofa; conditions: in vivo
Sus scrofa [9] = experiment: Anti-obesity activity in lean Landrace Yorkshire Duroc pig assessed as food intake at 30 nmol/kg, sc measured at 48 to 72 hrs post dose (reference value: 1.8 to 2.1 kg); format: functional
Sus scrofa [10] = experiment: Anti-obesity activity in lean Landrace Yorkshire Duroc pig assessed as food intake at 30 nmol/kg, sc measured up to 24 hrs post dose (reference value: 1.8 to 2.1 kg); format: functional
Sus scrofa [11] = experiment: Anti-obesity activity in lean Landrace Yorkshire Duroc pig assessed as food intake at 30 nmol/kg, sc measured at 24 to 48 hrs post dose (reference value: 1.8 to 2.1 kg); format: functional
[12] = target: T3, Gastrin/cholecystokinin type B receptor (Homo sapiens) (UniProt P32239); experiment: as §1; format: functional, cell-based
T3 sequence (whole entry): T1 sequence (P32239 whole entry)

[13] = target: T4, Cholecystokinin receptor type A (Homo sapiens) (UniProt P32238); experiment: as §2; format: functional, cell-based
T4 sequence (whole entry): T2 sequence (P32238 whole entry)

[14] = target: T4, Cholecystokinin receptor type A (Homo sapiens); experiment: as §3
[15] = target: T3, Gastrin/cholecystokinin type B receptor (Homo sapiens); experiment: as §4

## CCCC[C@H](NC(=O)[C@H](Cc1ccc(CS(=O)(=O)O)cc1)NC(=O)[C@H](CC(=O)O)NC(=O)COCCOCCNC(=O)COCCOCCNC(=O)CC[C@H](NC(=O)CCCCCCCCCCCCCCCCC(=O)O)C(=O)O)C(=O)NCC(=O)O ({C18 diacid-γGlu-AEEA-AEEA}-D[Phe(4-CH2SO3H)][Nle]G-OH)
[1]
  Drug uptake: Active

## CCCC[C@H](NC(=O)[C@H](Cc1ccc(CS(=O)(=O)O)cc1)NC(=O)[C@H](CC(=O)O)NC(=O)COCCOCCNC(=O)COCCOCCNC(=O)CC[C@H](NC(=O)CCCCCCCCCCCCCCCCC(=O)O)C(=O)O)C(=O)NCC(=O)N[C@@H](Cc1c[nH]c2ccccc12)C(=O)N[C@@H](CCCC)C(=O)N(C)[C@@H](CC(=O)O)C(=O)O ({C18 diacid-γGlu-AEEA-AEEA}-D[Phe(4-CH2SO3H)][Nle]GW[Nle][NMeD]-OH)
[1]
  Drug uptake: Active

## CCCC[C@H](NC(=O)[C@H](Cc1ccc(CS(=O)(=O)O)cc1)NC(=O)[C@H](CC(=O)O)NC(=O)COCCOCCNC(=O)COCCOCCNC(=O)CC[C@H](NC(=O)CCCCCCCCCCCCCCCCC(=O)O)C(=O)O)C(=O)NCC(=O)N[C@@H](Cc1c[nH]c2ccccc12)C(=O)N[C@@H](CCCC)C(=O)N(C)[C@@H](CC(=O)O)C(=O)N(C)[C@@H](Cc1ccccc1)C(N)=O ({C18 diacid-γGlu-AEEA-AEEA}-D[Phe(4-CH2SO3H)][Nle]GW[Nle][NMeD][NMeF]-NH2)
[2]
  EC50: > 1000 nM
[3]
  EC50: 0.107 nM
Sus scrofa [4]
  Activity: 2.2 kg
[5]
  IC50: 0.316 nM
[6]
  concentration at 96 h: 93.9 nM
[7]
  IC50: 8.71 µM
[8]
  Activity: Non-Toxic
Sus scrofa [9]
  Activity: 2.3 kg
Sus scrofa [10]
  Activity: 1.9 kg
Sus scrofa [11]
  Activity: 2 kg

## CC(C)C[C@H](NC(=O)[C@H](Cc1ccc(OS(=O)(=O)O)cc1)NC(=O)[C@H](CC(=O)O)NC(=O)COCCOCCNC(=O)COCCOCCNC(=O)CC[C@H](NC(=O)CCCCCCCCCCCCCCCCC(=O)O)C(=O)O)C(=O)NCC(=O)N[C@@H](Cc1c[nH]c2ccccc12)C(=O)N[C@@H](CCC(N)=O)C(=O)N(C)[C@H](CC(=O)O)C(=O)N(C)[C@@H](Cc1ccccc1)C(N)=O ({C18 diacid-γGlu-AEEA-AEEA}-D[sY]LGWQ[dNMeD][NMeF]-NH2)
[3]
  EC50: 0.135 nM
Sus scrofa [4]
  Activity: 1.8 kg
[6]
  concentration at 96 h: 91.2 nM
[8]
  Activity: Non-Toxic
Sus scrofa [9]
  Activity: 1.8 kg
Sus scrofa [10]
  Activity: 1.4 kg
Sus scrofa [11]
  Activity: 1.3 kg

## CCCC[C@H](NC(=O)[C@H](Cc1ccc(OS(=O)(=O)O)cc1)NC(=O)[C@H](CC(=O)O)NC(=O)COCCOCCNC(=O)COCCOCCNC(=O)CC[C@H](NC(=O)CCCCCCCCCCCCCCCCC(=O)O)C(=O)O)C(=O)NCC(=O)N[C@@H](Cc1c[nH]c2ccccc12)C(=O)N[C@@H](CO)C(=O)N[C@@H](CC(=O)O)C(=O)N[C@@H](Cc1ccccc1)C(N)=O ({C18 diacid-γGlu-AEEA-AEEA}-D[sY][Nle]GWSDF-NH2)
[12]
  pEC50: inactive
[13]
  pEC50: inactive
[14]
  pIC50: inactive
[15]
  pIC50: inactive

## CCCC[C@H](NC(=O)[C@H](Cc1ccc(CS(=O)(=O)O)cc1)NC(=O)[C@H](CC(=O)O)NC(=O)COCCOCCNC(=O)[C@H](CCCCN)NC(=O)COCCOCCNC(=O)COCCOCCNC(=O)CC[C@H](NC(=O)CCCCCCCCCCCCCCCCC(=O)O)C(=O)O)C(=O)NCC(=O)N[C@@H](Cc1c[nH]c2ccccc12)C(=O)N[C@@H](CCCC)C(=O)N(C)[C@H](CC(=O)O)C(=O)N(C)[C@@H](Cc1ccccc1)C(N)=O ({C18 diacid-γGlu-AEEA-AEEA}-K[AEEA]D[Phe(4-CH2SO3H)][Nle]GW[Nle][dNMeD][NMeF]-NH2)
[3]
  EC50: 0.214 nM
Sus scrofa [4]
  Activity: 1.8 kg
[5]
  IC50: 0.0631 nM
[6]
  concentration at 96 h: 8.8 nM
[7]
  IC50: 0.129 µM
[8]
  Activity: Non-Toxic
Sus scrofa [9]
  Activity: 1.6 kg
Sus scrofa [10]
  Activity: 0.9 kg
Sus scrofa [11]
  Activity: 1.2 kg
